Data on eight compounds can be found in US20250120932A1, “PHARMACEUTICAL COMPOSITION” (NEUROPRO THERAPEUTICS, INC., priority 2021, published 2025).

The logP is the decadic logarithm of the partition coefficient of the neutral form, usually between octanol and water. Lower therefore signals a more hydrophilic compound. For orientation: efflux ratio means a quotient of directional permeabilities that is used to spot active efflux. Broadly, the Papp A→B is how fast a substance crosses the layer from the apical side. For orientation: Papp B→A means how fast a substance crosses the layer from the basolateral side.

One series deals with Caco-2 cells. As to the kind of experiment: in vitro. As to the method:
(§1) Caco-2 cells purchased from ATCC were seeded onto […] (PET) in 96-well Corning Insert plates at 1×10^5 cells/cm^2, and refreshed medium every 4˜5 days until to the 21st to 28th day for confluent cell monolayer formation.
(§2) The transport buffer in the study was HBSS with 10.0 mM HEPES at pH 7.40±0.05. Test compound was tested at 2.00 μM bi-directionally in duplicate. Digoxin was tested at 10.0 μM bi-directionally in duplicate, while nadolol and metoprolol were tested at 2.00 μM in A to B direction in duplicate. Final DMSO concentration was adjusted to less than 1%. The plate was incubated for 2 hours in CO2 incubator at 37±1° C., with 5% CO2 at saturated humidity without shaking. And all samples after mixed with acetonitrile containing internal standard were centrifuged at 3200×g for 10 min. For nadolol and metoprolol, 200 μL supernatant solution was diluted with 600 μL ultra-pure water for LC-MS/MS analysis. For digoxin and test compounds, 200 μL supernatant solution was diluted with 200 μL ultra-pure water for LC-MS/MS analysis. Concentrations of test and control compounds in starting solution, donor solution, and receiver solution were quantified by LC-MS/MS methodologies, using peak area ratio of analyte/internal standard. After transport assay, lucifer yellow rejection assay was applied to determine the Caco-2 cell monolayer integrity.
(§3) The apparent permeability coefficient Papp (cm/s) was calculated using the equation: […]
(§4) Where dCp/dt is the cumulative concentration of compound in the receiver chamber as a function of time (μM/s); Vr is the solution volume in the receiver chamber (0.075 mL on the apical side, 0.25 mL on the basolateral side); A is the surface area for the transport, i.e. 0.0804 cm^2 for the area of the monolayer; Co is the initial concentration in the donor chamber (μM). The efflux ratio was calculated using the equation: […]
(§5) Percent recovery was calculated using the equation: […]
(§6) Where Vd is the volume in the donor chambers (0.075 mL on the apical side, 0.25 mL on the basolateral side); Ca and Cr are the final concentrations of transport compound in donor and receiver chambers, respectively.

The nature of series [1]: LogP (octanol:water partition coefficient). An excerpt:
Crucial to the efficacy of any treatment by a pharmaceutical composition is the overall systemic bioavailability of the pharmaceutical composition used for said treatment. […] LogP is one measure of lipophyilicity, and is the octal:water partition coefficient expressed as a log ratio of molecule in octanol relative to water after mixing.

The nature of series [2]: Oral SEDDS-formulated versus unformulated Bumetanide amides in rats, blood concentration. Particulars: male rats. It is filed as in vivo. The method, then: SEDDS-formulated and unformulated Bumetanide Morpholinoamide and Bumetanide Diethylamide were orally administered to rats. The experiment was conducted as described previously in regards to Bumetanide Dibenzylamide. Three male and three female rats at each time point for each of the SEDDS and non-SEDDS treatments were used. […] As this appeared to be experimental error, all female rats were removed from the data.

Series [3] in a line: Pharmacokinetic study in cynomolgus monkeys after oral (nasogastric) gavage, sublingual and intravenous administration. It is filed as in vivo. Particulars: monkeys, after SL dosing of Bumetanide Dibenzylamide. As to the method:
A pharmacokinetic study was done in cynomolgus monkeys following single oral (nasogastric) gavage, sublingual, and intravenous administration. […] Calibration curves, blanks, and analytical QCs were prepared in monkey plasma (K2EDTA). The extracts were evaporated to dryness, reconstituted, and then analyzed by LC-MS/MS. The calibration range was 0.250-250 ng/mL for both analytes.
If the criteria for either the calibration curve or the analytical QCs were not met, the analytical run was rejected. […] No deviations were found during the bioanalytical phase of the study conducted by Origin. Calibration curves were derived from the individual analyte to internal standard peak area ratios using the least squared regression of the ratio versus the nominal concentration of the calibration standard, prepared in duplicate. The regression was then used to back-calculate the concentration of each calibration standard, QC sample and study sample. […] Analyst® Software Version 1.6.3 (Applied Biosystems-MDS Sciex), operated with Windows® (Microsoft), was used for instrument control, data acquisition, and peak integrations. Peak area ratios, standard curve regressions, and sample concentration/accuracy values were calculated with Analyst® Software Version 1.6.3. Other results (e.g., mean statistics) were calculated with Excel® (Microsoft).
There was no apparent sex difference for the second formulation. […] A fourth formulation comprising the composition B listed in Table 54 was also administered in monheys.

Series [4] in a line: Oral delivery of unformulated Bumetanide Dibenzylamide in Beagle dogs, pharmacokinetics and bioavailability. In kind it is in vivo. The conditions noted are these: oral non-formulated Bumetanide Dibenzylamide.
A further series is described as follows: in vitro. Particulars: human; for recovery at 2 h: Caco-2, pH 7.4, Mean % Solution Recovery A to B. As to the method: as §1, §2, §3, §4, §5, §6
The mark [5] stands for this setting: human, Caco-2, 2 h, 10 μM, pH 7.4.
[6] abbreviates: Caco-2, pH 7.4, Mean Papp (10^−6 cm/s) A to B.

On to `CCCCNc1cc(C(=O)N(Cc2ccccc2)Cc2ccccc2)cc(S(N)(=O)=O)c1Oc1ccccc1` [Bumetanide Dibenzylamide unformulated], for which, in the series on Caco-2 cells (Caco-2), the “Efflux Ratio” value is recorded as greater than 0.825, the “Mean % Solution Recovery A to B” value was less than 4.9%, the “Mean % Solution Recovery B to A” value is listed as 25.4% and the “Rank Efflux Transporter Substrate” value was “Poor or non-”. Also, in the series with Caco-2 cells (Caco-2, pH 7.4), the “Mean Papp (10^−6 cm/s) A to B” value is <0.480 10^−6 cm/s and the “Mean Papp (10^−6 cm/s) B to A” value was 0.396 10^−6 cm/s.
For the compound `CCCCNc1cc(C(=O)N(CC)CC)cc(S(N)(=O)=O)c1Oc1ccccc1` [Bumetanide Diethylamide], in the series on Caco-2 cells (Caco-2, A to B, second Table 73 (diethylamide run)), the “Mean % Solution Recovery A to B” value is 77.4%. The “Mean Papp (10^−6 cm/s) A to B” value in the series on Caco-2 cells (Caco-2, A to B, test compound 2.00 μM (digoxin 10.0 μM), 2 hours, HBSS pH 7.40, second Table 73 (diethylamide run)) is recorded as 1.33 10^−6 cm/s. Besides, in the series on Caco-2 cells (Caco-2, B to A / A to B, second Table 73 (diethylamide run)), the “Efflux Ratio” value is 31.6. Moreover, the “Mean % Solution Recovery B to A” value with Caco-2 cells (Caco-2, B to A, second Table 73 (diethylamide run)) is recorded as 88.5%. For the same compound, the “Mean Papp (10^−6 cm/s) B to A” value in the series on Caco-2 cells (Caco-2, B to A, test compound 2.00 μM (digoxin 10.0 μM), 2 hours, HBSS pH 7.40, second Table 73 (diethylamide run)) is 42.0 10^−6 cm/s. In the series with Caco-2 cells (Caco-2 efflux ratio rank, second Table 73 (diethylamide run)), the “Rank Efflux Transporter Substrate” value is “Likely”. The “Rank Papp” value with Caco-2 cells (Caco-2 permeability rank, second Table 73 (diethylamide run)) is “Moderate (Moderate permeability: 0.500<Papp<2.50 (×10^−6 cm/s))”. The same compound gave a logP in series [1] (octanol:water partition coefficient) of 3.11.
On to `CCCCNc1cc(C(=O)N2CCOCC2)cc(S(N)(=O)=O)c1Oc1ccccc1` [Bumetanide Morpholinoamide], for which, in series [2], the “blood concentration by 24 hrs” value is given as “no detectable concentration”.
Take `CCCCNc1cc(C(=O)N2CCOCC2)cc(S(N)(=O)=O)c1Oc1ccccc1` [Bumetanide morpholinoamide unformulated]: in the series on Caco-2 cells (Caco-2), the “Efflux Ratio” value worked out at 43.8, the “Mean % Solution Recovery A to B” value is 87.4%, the “Mean % Solution Recovery B to A” value was determined as 99.6% and the “Rank Efflux Transporter Substrate” value is “Likely”. Moreover, in the series with Caco-2 cells (Caco-2, pH 7.4), the “Mean Papp (10^−6 cm/s) A to B” value is given as 0.709 10^−6 cm/s and the “Mean Papp (10^−6 cm/s) B to A” value was 31.0 10^−6 cm/s.
In the case of `CCCCNc1cc(C(=O)O)cc(S(N)(=O)=O)c1Oc1ccccc1` [Bumetanide, reference compound], the “plasma concentrations of Bumetanide” value in series [3] is “no measurable concentrations”. Moreover, the Bumetanide levels result in series [4] is on record as “not measureable”. Moreover, the logP in series [1] was roughly 2.61.
As for `C[C@H]1O[C@@H](O[C@H]2[C@@H](O)C[C@H](O[C@H]3[C@@H](O)C[C@H](O[C@H]4CC[C@@]5(C)[C@H](CC[C@@H]6[C@@H]5C[C@@H](O)[C@]5(C)[C@@H](C7=CC(=O)OC7)CC[C@]65O)C4)O[C@@H]3C)O[C@@H]2C)C[C@H](O)[C@@H]1O` [Digoxin, reference compound], in the series with Caco-2 cells (Caco-2), the “Rank Efflux Transporter Substrate” value is “Likely”. In the series on Caco-2 cells (setting [5]), the “Efflux Ratio” value is reported as 800 and the “Mean % Solution Recovery B to A” value is 103.4%. In the series with Caco-2 cells (human, Caco-2, 2 h, pH 7.4), the “Mean % Solution Recovery A to B” value stood at 97.4%. Further, in the series “in vitro” (Caco-2, pH 7.4, Efflux Ratio), the efflux ratio at 2 h, 10 μM is 586. This compound had a recovery at 2 h in the series “in vitro” of 94.7%. In the series “in vitro” (Caco-2, pH 7.4, Mean % Solution Recovery B to A), this compound gave a recovery at 2 h, 10 μM of 108%. This compound came in with a Papp A→B at 2 h in “in vitro” (setting [6]) of 0.0223 ×10⁻⁶ cm/s. In addition, the basolateral-to-apical permeability (Papp B→A) at 2 h, 10 μM in “in vitro” (Caco-2, pH 7.4, Mean Papp (10^−6 cm/s) B to A) was found to be 13.1 ×10⁻⁶ cm/s. In the series “in vitro” (Caco-2, pH 7.4, Rank Papp), this compound registered a Papp A→B at 2 h of less than 0.5 ×10⁻⁶ cm/s.
`COCCc1ccc(OCC(O)CNC(C)C)cc1` (stereo not drawn) [metoprolol, reference compound]: in the series on Caco-2 cells (human, Caco-2, 2 h, pH 7.4), the “Mean % Solution Recovery A to B” value is listed as 95.7%. In the series “in vitro”, the recovery at 2 h stood at 94.7%. For the same compound, the Papp A→B at 2 h is 19.2 ×10⁻⁶ cm/s in the series “in vitro” (setting [6]) and greater than 2.5 ×10⁻⁶ cm/s in the series “in vitro” (Caco-2, pH 7.4, Rank Papp).
Take `CC(C)(C)NCC(O)COc1cccc2c1CC(O)C(O)C2` (stereo not drawn) [nadolol, reference compound]: the “Mean % Solution Recovery A to B” value in the series on Caco-2 cells (human, Caco-2, 2 h, pH 7.4) worked out at 98.5%. Also, the recovery at 2 h in the series “in vitro” is 97%. In addition, the Papp A→B at 2 h in “in vitro” (setting [6]) was 0.0983 ×10⁻⁶ cm/s; in “in vitro” (Caco-2, pH 7.4, Rank Papp) it was less than 0.5 ×10⁻⁶ cm/s.
